For 28 compounds, IC50 results are on record in patent publication US11260049B2, “TRPV4 antagonists” (GlaxoSmithKline Intellectual Property (No. 2) Limited, priority 2016, dated 2022).

The target in this test is human TRPV4 (Homo sapiens (Human), UniProt Q9HBA0). In words: FLIPR assay for hTRPV4 expressed in BHK cells. Conditions: inhibition of Agonist Compound (EC80)-induced calcium signal; BHK/AC9 cells expressing human TRPV4; read-out: IC50. It counts as cell-based. In short, it runs like this:
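BHK/AC9 cells transduced with BacMam human TRPV4 (MOI 78), 15,000 cells/well, cultured 24 h at 37 °C. Loaded with 2 μM Fluo-4 AM and 500 μM Brilliant Black in HBSS for 1–1.5 h at room temperature in the dark. Intracellular calcium influx monitored by fluorescence.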

Chain of human TRPV4 (Q9HBA0 whole entry): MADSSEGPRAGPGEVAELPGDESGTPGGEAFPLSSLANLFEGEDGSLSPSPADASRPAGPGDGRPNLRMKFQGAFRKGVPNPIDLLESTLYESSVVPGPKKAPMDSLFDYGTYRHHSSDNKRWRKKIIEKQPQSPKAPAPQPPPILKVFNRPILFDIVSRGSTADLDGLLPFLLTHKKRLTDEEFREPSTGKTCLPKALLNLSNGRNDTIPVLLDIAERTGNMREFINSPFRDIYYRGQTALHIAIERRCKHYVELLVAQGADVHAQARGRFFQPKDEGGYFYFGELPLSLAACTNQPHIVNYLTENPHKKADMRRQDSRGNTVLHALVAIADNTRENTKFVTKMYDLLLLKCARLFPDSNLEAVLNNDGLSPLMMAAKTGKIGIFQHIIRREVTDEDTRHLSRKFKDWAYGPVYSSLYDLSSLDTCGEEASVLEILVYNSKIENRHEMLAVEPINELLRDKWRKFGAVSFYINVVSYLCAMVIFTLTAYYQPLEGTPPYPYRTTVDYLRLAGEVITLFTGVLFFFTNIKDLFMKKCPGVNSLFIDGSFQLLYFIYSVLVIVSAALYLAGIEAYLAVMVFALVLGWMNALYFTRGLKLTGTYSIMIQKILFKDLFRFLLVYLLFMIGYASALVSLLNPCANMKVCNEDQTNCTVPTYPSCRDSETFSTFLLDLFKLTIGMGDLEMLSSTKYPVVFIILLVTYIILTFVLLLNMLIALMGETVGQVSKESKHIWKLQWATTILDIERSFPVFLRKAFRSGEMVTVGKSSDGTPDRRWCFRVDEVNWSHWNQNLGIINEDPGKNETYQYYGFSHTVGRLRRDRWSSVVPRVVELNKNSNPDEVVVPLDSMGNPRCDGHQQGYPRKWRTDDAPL

As to `N#Cc1ccc(S(=O)(=O)N2C[C@H](S(=O)(=O)c3ccc(C#N)c(F)c3)[C@@](O)(CO)C2)c(Cl)c1` [Example 3, 4-(((3S,4S)-1-((2-chloro-4-cyanophenyl)sulfonyl)-4-hydroxy-4-(hydroxymethyl)pyrrolidin-3-yl)sulfonyl)-2-fluorobenzonitrile], the IC50 is 0.1 to 10 nM.
Consider `N#CCc1cc(Cl)ccc1S(=O)(=O)N1C[C@H](S(=O)(=O)c2ccc(Cl)cc2)[C@](O)(CO)C1` [Example 66, 2-(5-chloro-2-(((3R,4S)-4-((4-chlorophenyl)sulfonyl)-3-hydroxy-3-(hydroxymethyl)pyrrolidin-1-yl)sulfonyl)phenyl)acetonitrile], for which the IC50 is 10 to 100 nM.
With `N#Cc1cc(C(F)(F)F)ccc1S(=O)(=O)N1C[C@H](S(=O)(=O)c2ccc(F)c(F)c2)[C@@](O)(CO)C1` [Example 77, 2-(((3S,4S)-4-((3,4-difluorophenyl)sulfonyl)-3-hydroxy-3-(hydroxymethyl)pyrrolidin-1-yl)sulfonyl)-5-(trifluoromethyl)benzonitrile], the IC50 is 10 to 100 nM.
Next, `N#Cc1ccc(S(=O)(=O)[C@H]2CN(S(=O)(=O)c3ccc(C(F)(F)F)cc3Cl)C[C@@]2(O)CO)cc1` [Example 89, 4-(((3S,4R)-1-((2-chloro-4-(trifluoromethyl)phenyl)sulfonyl)-4-hydroxy-4-(hydroxymethyl)pyrrolidin-3-yl)sulfonyl)benzonitrile]: 10 to 100 nM; `N#Cc1ccc(S(=O)(=O)[C@H]2CN(S(=O)(=O)c3ccc(C(F)(F)F)cc3F)C[C@@]2(O)CO)cc1` [Example 36, 4-(((3S,4R)-1-((2-fluoro-4-(trifluoromethyl)phenyl)sulfonyl)-4-hydroxy-4-(hydroxymethyl)pyrrolidin-3-yl)sulfonyl)benzonitrile]: 10 to 100 nM.
The result for `N#Cc1ccc(S(=O)(=O)[C@H]2CN(S(=O)(=O)c3ccc(C(F)(F)F)cc3Br)C[C@@]2(O)CO)cc1` [Example 32, 4-(((3S,4R)-1-((2-bromo-4-(trifluoromethyl)phenyl)sulfonyl)-4-hydroxy-4-(hydroxymethyl)pyrrolidin-3-yl)sulfonyl)benzonitrile] reads 10 to 100 nM.
On to `Cc1nc(C(F)(F)F)ccc1S(=O)(=O)N1C[C@H](S(=O)(=O)c2ccc(C#N)c(F)c2)[C@](O)(CO)C1` [Example 72, 2-fluoro-4-(((3S,4R)-4-hydroxy-4-(hydroxymethyl)-1-((2-methyl-6-(trifluoromethyl)pyridin-3-yl)sulfonyl)pyrrolidin-3-yl)sulfonyl)benzonitrile], for which the IC50 was 10 to 100 nM.
`O=S(=O)(c1ccc(Cl)cc1)[C@H]1CN(S(=O)(=O)c2ccc(Cl)cc2C(F)F)C[C@@]1(O)CO` [Example 65, (3R,4S)-1-((4-chloro-2-(difluoromethyl)phenyl)sulfonyl)-4-((4-chlorophenyl)sulfonyl)-3-(hydroxymethyl)pyrrolidin-3-ol]: the IC50 lay in the range of 10 to 100 nM.
As to `N#Cc1ccc(S(=O)(=O)N2C[C@H](S(=O)(=O)c3ccc(Cl)cc3)[C@](O)(CN)C2)cc1` [Example 126, 4-(((3S,4S)-3-(aminomethyl)-4-((4-chlorophenyl)sulfonyl)-3-hydroxypyrrolidin-1-yl)sulfonyl)benzonitrile], the IC50 lay in the range of 10 to 100 nM.
The result for `CCc1cc(C#N)ccc1S(=O)(=O)N1C[C@H](S(=O)(=O)c2ccc(Cl)cc2)[C@](O)(CO)C1` [Example 46, 4-(((3R,4S)-4-((4-chlorophenyl)sulfonyl)-3-hydroxy-3-(hydroxymethyl)pyrrolidin-1-yl)sulfonyl)-3-ethylbenzonitrile] reads 10 to 100 nM; that for `N#Cc1ccc(S(=O)(=O)N2C[C@H](S(=O)(=O)c3ccc(Cl)cc3)[C@](O)(CO)C2)c(Cl)c1` [Example 2, 3-chloro-4-(((3R,4S)-4-((4-chlorophenyl)sulfonyl)-3-hydroxy-3-(hydroxymethyl)pyrrolidin-1-yl)sulfonyl)benzonitrile], 0.1 to 10 nM; that for `Cc1cc(C(F)(F)F)ccc1S(=O)(=O)N1C[C@H](S(=O)(=O)c2ccc(C#N)cc2)[C@](O)(CO)C1` [Example 28, 4-(((3S,4R)-4-hydroxy-4-(hydroxymethyl)-1-((2-methyl-4-(trifluoromethyl)phenyl)sulfonyl)pyrrolidin-3-yl)sulfonyl)benzonitrile], 10 to 100 nM.
The result for `N#Cc1ccc(S(=O)(=O)N2C[C@H](S(=O)(=O)c3ccc(Cl)cc3)[C@](O)(CO)C2)c(C(F)(F)F)c1` [Example 19, 4-(((3R,4S)-4-((4-chlorophenyl)sulfonyl)-3-hydroxy-3-(hydroxymethyl)pyrrolidin-1-yl)sulfonyl)-3-(trifluoromethyl)benzonitrile] reads 0.1 to 10 nM; that for `N#Cc1ccc(S(=O)(=O)N2C[C@H](S(=O)(=O)c3ccc(Cl)cc3)[C@@](O)(CNCC(F)(F)F)C2)c(Cl)c1` [Example 128, 3-chloro-4-(((3R,4S)-4-((4-chlorophenyl)sulfonyl)-3-hydroxy-3-(((2,2,2-trifluoroethyl)amino)methyl)pyrrolidin-1-yl)sulfonyl)benzonitrile], 10 to 100 nM.
Next, `O=S(=O)(c1ccc(C(F)(F)F)nc1)[C@H]1CN(S(=O)(=O)c2ccc(Cl)cc2Cl)C[C@@]1(O)CO` [Example 118, (3R,4S)-1-((2,4-dichlorophenyl)sulfonyl)-3-(hydroxymethyl)-4-((6-(trifluoromethyl)pyridin-3-yl)sulfonyl)pyrrolidin-3-ol]: 10 to 100 nM; `Cc1cc(S(=O)(=O)[C@H]2CN(S(=O)(=O)c3ccc(C(F)(F)F)cc3Cl)C[C@@]2(O)CO)ccc1C#N` [Example 100, 4-(((3S,4R)-1-((2-chloro-4-(trifluoromethyl)phenyl)sulfonyl)-4-hydroxy-4-(hydroxymethyl)pyrrolidin-3-yl)sulfonyl)-2-methylbenzonitrile]: 10 to 100 nM; `N#Cc1ccc(S(=O)(=O)N2C[C@H](S(=O)(=O)c3ccc(Cl)cc3)[C@](O)(CO)C2)c(OC2CC2)c1` [Example 50, 4-(((3R,4S)-4-((4-chlorophenyl)sulfonyl)-3-hydroxy-3-(hydroxymethyl)pyrrolidin-1-yl)sulfonyl)-3-cyclopropoxybenzonitrile]: 10 to 100 nM.
`N#Cc1ccc(S(=O)(=O)N2C[C@H](S(=O)(=O)c3ccc(C(F)(F)F)nc3)[C@](O)(CO)C2)c(C(F)(F)F)c1` [Example 27, 4-(((3R,4S)-3-hydroxy-3-(hydroxymethyl)-4-((6-(trifluoromethyl)pyridin-3-yl)sulfonyl)pyrrolidin-1-yl)sulfonyl)-3-(trifluoromethyl)benzonitrile]: the IC50 lay within 10 to 100 nM.
The result for `O=S(=O)(c1cnc(C(F)(F)F)nc1)[C@H]1CN(S(=O)(=O)c2ccc(Cl)cc2Cl)C[C@@]1(O)CO` [Example 108, (3R,4S)-1-((2,4-dichlorophenyl)sulfonyl)-3-(hydroxymethyl)-4-((2-(trifluoromethyl)pyrimidin-5-yl)sulfonyl)pyrrolidin-3-ol] reads 10 to 100 nM.
Consider `COC(=O)c1ccc(S(=O)(=O)[C@H]2CN(S(=O)(=O)c3ccc(Cl)cc3C(F)F)C[C@@]2(O)CO)cc1` [Example 64], for which the 50% inhibitory concentration (IC50) was in the range of 10 to 100 nM.
Consider `N#Cc1ccc(S(=O)(=O)[C@H]2CN(S(=O)(=O)c3ccc(Cl)cc3Cl)C[C@@]2(O)CO)c(F)c1` [Example 86, 4-(((3S,4R)-1-((2,4-dichlorophenyl)sulfonyl)-4-hydroxy-4-(hydroxymethyl)pyrrolidin-3-yl)sulfonyl)-3-fluorobenzonitrile], for which the IC50 fell in the range of 10 to 100 nM.
Regarding `N#Cc1ccc(S(=O)(=O)[C@H]2CN(S(=O)(=O)c3ccc(Br)cc3C(F)(F)F)C[C@@]2(O)CO)cc1` [Example 30, 4-(((3S,4R)-1-((4-bromo-2-(trifluoromethyl)phenyl)sulfonyl)-4-hydroxy-4-(hydroxymethyl)pyrrolidin-3-yl)sulfonyl)benzonitrile], the IC50 is 0.1 to 10 nM.
On to `N#Cc1ccc(S(=O)(=O)N2C[C@H](S(=O)(=O)c3ccc(Br)cc3)[C@](O)(CO)C2)c(Cl)c1` [Example 74, 4-(((3R,4S)-4-((4-bromophenyl)sulfonyl)-3-hydroxy-3-(hydroxymethyl)pyrrolidin-1-yl)sulfonyl)-3-chlorobenzonitrile], for which the IC50 lay in the range of 0.1 to 10 nM.
As to `N#Cc1ccc(S(=O)(=O)N2C[C@H](S(=O)(=O)c3ccc(C(F)(F)F)cc3)[C@](O)(CO)C2)c(C(F)F)c1` [Example 55, 3-(difluoromethyl)-4-(((3R,4S)-3-hydroxy-3-(hydroxymethyl)-4-((4-(trifluoromethyl)phenyl)sulfonyl)pyrrolidin-1-yl)sulfonyl)benzonitrile], the IC50 was in the range of 0.1 to 10 nM.
`N#Cc1ccc(S(=O)(=O)[C@H]2CN(S(=O)(=O)c3ccc(Cl)cc3C(F)(F)F)C[C@@]2(O)CO)cc1` [Example 25, 4-(((3S,4R)-1-((4-chloro-2-(trifluoromethyl)phenyl)sulfonyl)-4-hydroxy-4-(hydroxymethyl)pyrrolidin-3-yl)sulfonyl)benzonitrile]: the IC50 lay in the range of 0.1 to 10 nM.
The result for `N#Cc1ccc(S(=O)(=O)[C@H]2CN(S(=O)(=O)c3ccc(Br)cc3Cl)C[C@@]2(O)CO)cc1` [Example 34, 4-(((3S,4R)-1-((4-bromo-2-chlorophenyl)sulfonyl)-4-hydroxy-4-(hydroxymethyl)pyrrolidin-3-yl)sulfonyl)benzonitrile] reads 0.1 to 10 nM; that for `CCCc1ccc(S(=O)(=O)[C@H]2CN(S(=O)(=O)c3ccc(C#N)cc3Cl)C[C@@]2(O)CO)cc1` [Example 106, 3-chloro-4-(((3R,4S)-3-hydroxy-3-(hydroxymethyl)-4-((4-propylphenyl)sulfonyl)pyrrolidin-1-yl)sulfonyl)benzonitrile], 10 to 100 nM.
For the compound `N#Cc1cc(C(F)(F)F)ccc1S(=O)(=O)N1C[C@H](S(=O)(=O)c2cc(F)c(F)c(F)c2)[C@](O)(CO)C1` [Example 94, 2-(((3R,4S)-3-hydroxy-3-(hydroxymethyl)-4-((3,4,5-trifluorophenyl)sulfonyl)pyrrolidin-1-yl)sulfonyl)-5-(trifluoromethyl)benzonitrile], the half-inhibitory concentration (IC50) lay in the range of 10 to 100 nM.

Broadly, the IC50 is the concentration that inhibits the measured activity by half.
